US6596774B1, “Synthesis, lipid peroxidation and cytotoxic evaluation of 10-substituted 1,5-dichloro-9(10H)-anthracenone derivatives” (priority 2001, dated 2003)
Counter-ions that a name gives are not always drawn.

How the values were obtained:
[1] = test system: Iron-induced Lipid Peroxidation in Rat Brain Homogenates; experiment: Assay of lipid peroxidation (TBA method); assay type: biochemical, Wistar rats; conditions: for Inhibition % (0.5 mM) / Inhibition (%) 0.005 mM / Inhibition (%) 0.05 mM / Inhibition (%) 5 mM: Mean ± S.E., n = 4; for efficiency in lipid peroxidation inhibition versus ascorbic acid, (+)-α-tocopherol and mitoxantrone (in words) / Inhibition (%) 0.005 mM: 0.005 mM; for Inhibition % (0.5 mM) / inhibitory effect on lipid peroxidation compared to ascorbic acid, (+)-α-tocopherol and mitoxantrone (in words): 0.5 mM
Procedure: The inhibitory effect on lipid peroxidation of these compounds were evaluated with rat brain phospholipid liposomes which provide an ideal model system for lipid peroxidation studies by Teng C. M., et. al., Eur. J. Pharmacol., vol. 303, pp. 129-139 (1996).
Assay of Lipid Peroxidation. Rat brain homogenate was prepared from the brains of freshly killed Wistar rats and its peroxidation in the presence of iron ions was measured by the thiobarbituric acid (TBA) method as described. The extent of lipid peroxidation was estimated as thiobarbituric acid-reactive substances and was read at 532 nm in a spectrophotometer (Shimadzu UV-160).

[2] = test system: Human Oral Epidermoid Carcinoma Cells (KB cell line); experiment: Cytotoxic activity test (cell proliferation assay), KB cells; assay type: cell-based; conditions: 50% inhibition of cellular growth following 48 h of drug exposure
Description: (§1) We evaluated the ability of the compounds to inhibit the growth of human oral epidermoid carcinoma cells (KB cell line), human cervical carcinoma cells of ME 180 (GBM8401) and Chinese hamster ovary (CHO) cells as normal cells, and lipid peroxidation in model membranes, respectively.
(§2) Cytotoxic Activity Test. Human oral epidermoid carcinoma cells (KB cell line), human cervical carcinoma cells of ME 180 (GBM8401) and Chinese hamster ovary (CHO) cells grown in plateau phase were cultivated, and the cell proliferation assay was performed as previously described. Inhibition of cellular growth was calculated by comparison of the mean values of the test compound (N=3) with the control (N=6-8) activity: (1-test compound/control)×100.

[3] = test system: Chinese Hamster Ovary (CHO) Cells; experiment: Cytotoxic activity test (cell proliferation assay), CHO cells as normal cells; assay type: cell-based; conditions: for IC50: Cricetulus griseus, 50% inhibition of cellular growth following 48 h of drug exposure; for toxicity in CHO compared with mitoxantrone (in words): versus mitoxantrone
Description: as §1, §2

[4] = test system: Human Cervical Carcinoma Cells of ME 180 (GBM8401); experiment: Cytotoxic activity test (cell proliferation assay), GBM8401 cells; assay type: cell-based; conditions: for IC50: Homo sapiens, ME-180, GBM8401 cells, 50% inhibition of cellular growth following 48 h of drug exposure
Description: as §1, §2

SMILES	Inhibition % (0.5 mM) ([1]; Table 2) [%]	IC50 [2] [µM]	IC50 [3] [µM]	IC50 [4] [µM]	toxicity in CHO compared with mitoxantrone (in words) [3]	cytotoxicity on GBM in vitro assay (in words) [4]	efficiency in lipid peroxidation inhibition versus ascorbic acid, (+)-α-tocopherol and mitoxantrone (in words) [1]	Inhibition (%) 0.005 mM ([1]; Table 3) [%]	Inhibition (%) 0.05 mM ([1]; Table 3) [%]	inhibitory effect on lipid peroxidation compared to ascorbic acid, (+)-α-tocopherol and mitoxantrone (in words) [1]	Inhibition % (0.5 mM) ([1]; Table 3) [%]	Inhibition (%) 5 mM ([1]; Table 3) [%]
CCOC1c2cccc(Cl)c2C(=O)c2cccc(Cl)c21 (centres unmarked) [Compound 3b, 10-Ethoxy 1,5-dichloro-9(10 H)-anthracenone]	7 ± 0.1	6.1	5.8	21.8	–	–	–	–	–	–	–	–
CC(C)OC1c2cccc(Cl)c2C(=O)c2cccc(Cl)c21 (centres unmarked) [Compound 3d, 10-(2-Propyloxy) 1,5-dichloro-9(10 H)-anthracenone]	13 ± 1.3	21.8	15.2	65.4	–	–	–	–	–	–	–	–
Cc1ccccc1NC1c2cccc(Cl)c2C(=O)c2cccc(Cl)c21 (centres unmarked) [Compound 4c, 10-(o-Toluidino) 1,5-dichloro-9(10 H)-anthracenone]	73 ± 3.5	3.4	3.8	2.4	more toxic in CHO than mitoxantrone	high cytotoxicity and significant activity	–	–	–	–	–	–
COC1c2cccc(Cl)c2C(=O)c2cccc(Cl)c21 (centres unmarked) [Compound 3a, 10-Methoxy 1,5-dichloro-9(10 H)-anthracenone]	7 ± 0.1	8.8	2.9	23.5	more toxic in CHO than mitoxantrone	–	–	–	–	–	–	–
CCN(CC)C1c2cccc(Cl)c2C(=O)c2cccc(Cl)c21 (centres unmarked) [Compound 4a, 10-Diethylamino 1,5-dichloro-9(10 H)-anthracenone]	12 ± 1.4	17.2	15	7.5	–	high cytotoxicity and significant activity	–	–	–	–	–	–
CCCCOC1c2cccc(Cl)c2C(=O)c2cccc(Cl)c21 (centres unmarked) [Compound 3e, 10-(Butyloxy) 1,5-dichloro-9(10 H)-anthracenone]	31 ± 3.7	29.5	8	29.5	–	–	–	–	–	–	–	–
Cc1ccc(NC2c3cccc(Cl)c3C(=O)c3cccc(Cl)c32)cc1 (centres unmarked) [Compound 4d, 10-(p-Toluidino) 1,5-dichloro-9(10 H)-anthracenone]	100	11.3	3	4.6	more toxic in CHO than mitoxantrone	high cytotoxicity and significant activity	significantly more efficient	33 ± 2.7	94 ± 3.5	better inhibitory effect	100	100
O=C1c2c(O)ccc(O)c2C(=O)c2c(NCCNCCO)ccc(NCCNCCO)c21 [mitoxantrone-HCl, reference compound]	64 ± 2.8	1.7	4	1.5	–	–	–	10 ± 1.1	52 ± 3.5	–	64 ± 2.1	100
CC(C)COC1c2cccc(Cl)c2C(=O)c2cccc(Cl)c21 (centres unmarked) [Compound 3f, 10-(iso-Butyloxy) 1,5-dichloro-9(10 H)-anthracenone]	38 ± 3.1	14.7	20.1	43.2	–	–	–	–	–	–	–	–
O=C1c2cccc(Cl)c2C(OCc2ccccc2)c2cccc(Cl)c21 (centres unmarked) [Compound 3g, 10-Benzyloxy 1,5-dichloro-9(10 H)-anthracenone]	16 ± 1.5	93.4	24.7	18.5	–	–	–	–	–	–	–	–
Cc1cccc(NC2c3cccc(Cl)c3C(=O)c3cccc(Cl)c32)c1 (centres unmarked) [Compound 4b, 10-(m-Toluidino) 1,5-dichloro-9(10 H)-anthracenone]	100	9.5	6.2	11.2	–	–	significantly more efficient	23 ± 2.4	92 ± 4.1	better inhibitory effect	100	100
O=C1O[C@H]([C@@H](O)CO)C(O)=C1O [ascorbic acid, reference compound]	87 ± 3.1	–	–	–	–	–	–	7 ± 0.5	22 ± 2.2	–	87 ± 2.5	100
CCCOC1c2cccc(Cl)c2C(=O)c2cccc(Cl)c21 (centres unmarked) [Compound 3c, 10-Propyloxy 1,5-dichloro-9(10 H)-anthracenone]	29 ± 2.5	1.8	42	11.1	–	–	–	–	–	–	–	–
Cc1c(C)c2c(c(C)c1O)CC[C@@](C)(CCC[C@H](C)CCC[C@H](C)CCCC(C)C)O2 [(+)-α-tocopherol, reference compound]	53 ± 4.4	–	–	–	–	–	–	0	0	–	53 ± 1.7	100
